Like-named read-outs stand apart in the source and are kept apart here.
Experiments:
DDR1 [1] = biological target: T1, DDR1 (Homo sapiens (Human), UniProt Q08345); test: DDR1 kinase inhibition assay (FAM-labeled peptide), IC50; assay type: biochemical
Experimental: 1× kinase base buffer (50 mM HEPES, pH 7.5, 0.0015% Brij-35) and a stop buffer (100 mM HEPES, pH 7.5, 0.015% Brij-35, 0.2% Coating Reagent #3, 50 mM EDTA) were prepared for testing kinases.
The compounds were diluted with 100% DMSO to 100 times the highest final inhibitor concentration required in the reaction. 100 μl of dilution of the compound was transferred to wells of a 96-well plate. For example, 100000 nM solution of the compound in DMSO was prepared in this step in case that an inhibitor concentration of 1000 nM is required. 100 μl of 100% DMSO was added to two empty wells of a 96-well plate for no compound control and no enzyme control. This plate was labeled as the source plate. A new 96-well plate with 5 μl of compound transferred from the source plate is used as an intermediate plate. 95 μl of 1× kinase buffer was added to each well of the intermediate plate. The compounds in the intermediate plate was mixed on a shaker for 10 minutes.
5 μl of sample in each well from the 96-well intermediate plate was transferred to the 384-well plate in duplicate. For example, well A1 of the 96-well plate was transferred to wells A2 and A1 of the 384-well plate, and well A2 of the 96-well plate was transferred to wells A3 and A4 of the 384-well plate, and so forth. 2.5× enzyme solution was prepared: 1× kinase basal buffer with added kinase. 2.5× peptide solution was prepared: 1× kinase basal buffer with added FAM-labeled peptide and ATP. To an assay plate already contained 5 μl of 10% dimethyl sulfoxide compound, 2.5× enzyme solution was transferred, and each well of the 384-well assay plate was added 10 μl of 2.5× enzyme solution. After incubation at room temperature for 10 minutes, 2.5× peptide solution was transferred to the assay plate. Each well of the 384-well assay plate was added 10 μl of 2.5× peptide solution. Kinase reaction and termination: incubation at 28° C. for a specified period followed by the addition of 25 μl stop buffer to stop the reaction. The data was read and collected.
Target sequence in this assay (Q08345 other isoform, or with tags, fused parts or gaps isoform Q08345-2): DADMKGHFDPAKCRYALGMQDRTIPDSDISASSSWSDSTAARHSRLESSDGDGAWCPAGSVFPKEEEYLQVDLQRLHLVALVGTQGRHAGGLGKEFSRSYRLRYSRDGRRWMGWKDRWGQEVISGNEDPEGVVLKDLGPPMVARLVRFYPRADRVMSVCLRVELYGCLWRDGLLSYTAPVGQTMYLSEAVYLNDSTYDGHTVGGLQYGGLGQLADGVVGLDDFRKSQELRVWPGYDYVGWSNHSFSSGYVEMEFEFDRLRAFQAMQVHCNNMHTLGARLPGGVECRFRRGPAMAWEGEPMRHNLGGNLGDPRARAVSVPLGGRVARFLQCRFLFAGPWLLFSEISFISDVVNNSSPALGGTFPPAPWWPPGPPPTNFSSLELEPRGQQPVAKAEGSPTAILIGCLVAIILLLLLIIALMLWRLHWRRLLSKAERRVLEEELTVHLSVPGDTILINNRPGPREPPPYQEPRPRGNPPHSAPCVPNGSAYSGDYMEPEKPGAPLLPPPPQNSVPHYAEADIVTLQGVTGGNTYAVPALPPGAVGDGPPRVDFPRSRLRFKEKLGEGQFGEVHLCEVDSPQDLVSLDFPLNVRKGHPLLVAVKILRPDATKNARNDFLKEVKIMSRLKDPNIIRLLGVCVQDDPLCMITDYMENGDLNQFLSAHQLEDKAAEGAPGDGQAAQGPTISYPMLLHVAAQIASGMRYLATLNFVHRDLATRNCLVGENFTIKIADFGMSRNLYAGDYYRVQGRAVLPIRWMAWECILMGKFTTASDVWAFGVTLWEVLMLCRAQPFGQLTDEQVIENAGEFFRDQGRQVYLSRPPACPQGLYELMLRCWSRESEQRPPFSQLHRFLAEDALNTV

[2] = biological target: phosphorylated DDR1 (p-DDR1) (Homo sapiens (Human), UniProt Q08345); test: Inhibition of phosphorylated DDR1 (p-DDR1) in T47D cells stimulated with rat tail collagen (western blot); assay type: cell-based
Experimental: Human breast ductal carcinoma cell line T47D cells were inoculated in a 6-well plate and incubated overnight at 37° C. and 5% CO2. After the cells are prepared, 2 μL of Compound C1 (DMSO solution of gradient concentrations) was added to a cell plate which was incubated at 37° C. and 5% CO2 for 24 hours. Rat tail collagen (capable of stimulating DDR1 phosphorylation) was added to the cell plate followed by incubation for 2 hours at 37° C. and 5% CO2. Harvest of cell lysates: culture medium was aspirated as much as possible at the end of the culture until the wells were almost dry. 200 μL of ice-cold lysis buffer was added. Lysate was collected into a 1.5 mL eppendorf tube through scraping. Brief vortex was followed by spin at 12000 rpm for 15 minutes in a refrigerated centrifuge. 5× protein electrophoresis loading buffer was added and then the sample was boiled. The sample supernatant was added to a SDS-PAGE gel, followed by electrophoresis, electrotransfer, blocking, primary antibody (anti-phospho-DDR1 antibody and anti-GAPDH antibody) incubation, washing, secondary antibody incubation, washing, and fluorescence development.

p38α = p38α (Homo sapiens (Human), UniProt Q16539); test: Kinase inhibition profile (HTRF / ADP Glo kinase assay); assay type: biochemical
Method in brief: (§1)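 Compound was preincubated with kinase and metal ions for 10 min at 25 °C, then substrate plus ATP was added for a 60 min reaction at 25 °C. Read-out was either HTRF (620/665 nm) or ADP-Glo luminescence. Percent inhibition was scaled between 0.5% DMSO (0%) and 10 μM positive control (100%).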

IKKα = IKKα (Homo sapiens (Human), UniProt O15111); test: as above; assay type: biochemical
Method in brief: as §1

DDR1 [3] = biological target: T1, DDR1; test: as above; assay type: biochemical; settings: for inhibition at 1 µM: 1 uM Compound C1, DDR1
Method in brief: as §1
Target sequence in this assay (Q08345 19-913): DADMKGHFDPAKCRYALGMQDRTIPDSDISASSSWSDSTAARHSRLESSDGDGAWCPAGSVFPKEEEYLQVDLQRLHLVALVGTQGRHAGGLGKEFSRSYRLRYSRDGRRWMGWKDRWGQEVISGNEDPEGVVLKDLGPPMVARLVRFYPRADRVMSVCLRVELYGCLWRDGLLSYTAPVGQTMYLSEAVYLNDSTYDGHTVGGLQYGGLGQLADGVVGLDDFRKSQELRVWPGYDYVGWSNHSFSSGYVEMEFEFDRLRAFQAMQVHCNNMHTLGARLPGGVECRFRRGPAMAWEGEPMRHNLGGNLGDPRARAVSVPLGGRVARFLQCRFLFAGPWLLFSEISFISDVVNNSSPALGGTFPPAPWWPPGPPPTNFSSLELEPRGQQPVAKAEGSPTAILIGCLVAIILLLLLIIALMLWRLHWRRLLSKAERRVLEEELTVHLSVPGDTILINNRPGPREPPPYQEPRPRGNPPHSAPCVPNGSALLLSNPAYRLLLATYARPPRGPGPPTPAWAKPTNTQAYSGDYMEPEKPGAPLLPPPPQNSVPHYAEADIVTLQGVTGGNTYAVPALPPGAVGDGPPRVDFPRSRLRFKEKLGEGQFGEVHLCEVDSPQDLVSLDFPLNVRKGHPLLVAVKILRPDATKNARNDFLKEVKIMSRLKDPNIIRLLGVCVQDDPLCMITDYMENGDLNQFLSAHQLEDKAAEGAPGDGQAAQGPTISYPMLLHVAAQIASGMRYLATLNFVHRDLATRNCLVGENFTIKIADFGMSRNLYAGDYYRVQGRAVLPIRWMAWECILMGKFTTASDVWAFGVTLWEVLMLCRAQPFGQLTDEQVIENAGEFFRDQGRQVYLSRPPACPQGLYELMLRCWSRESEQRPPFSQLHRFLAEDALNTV

[4] = 1 uM Compound C1, read-out: % Inhibition (First measurement)
[5] = 1 uM Compound C1, read-out: % Inhibition (Second measurement)
[6] = 1 uM Compound C1, read-out: Average inhibition (%)

Chain of IKKα (O15111 whole entry, species assumed): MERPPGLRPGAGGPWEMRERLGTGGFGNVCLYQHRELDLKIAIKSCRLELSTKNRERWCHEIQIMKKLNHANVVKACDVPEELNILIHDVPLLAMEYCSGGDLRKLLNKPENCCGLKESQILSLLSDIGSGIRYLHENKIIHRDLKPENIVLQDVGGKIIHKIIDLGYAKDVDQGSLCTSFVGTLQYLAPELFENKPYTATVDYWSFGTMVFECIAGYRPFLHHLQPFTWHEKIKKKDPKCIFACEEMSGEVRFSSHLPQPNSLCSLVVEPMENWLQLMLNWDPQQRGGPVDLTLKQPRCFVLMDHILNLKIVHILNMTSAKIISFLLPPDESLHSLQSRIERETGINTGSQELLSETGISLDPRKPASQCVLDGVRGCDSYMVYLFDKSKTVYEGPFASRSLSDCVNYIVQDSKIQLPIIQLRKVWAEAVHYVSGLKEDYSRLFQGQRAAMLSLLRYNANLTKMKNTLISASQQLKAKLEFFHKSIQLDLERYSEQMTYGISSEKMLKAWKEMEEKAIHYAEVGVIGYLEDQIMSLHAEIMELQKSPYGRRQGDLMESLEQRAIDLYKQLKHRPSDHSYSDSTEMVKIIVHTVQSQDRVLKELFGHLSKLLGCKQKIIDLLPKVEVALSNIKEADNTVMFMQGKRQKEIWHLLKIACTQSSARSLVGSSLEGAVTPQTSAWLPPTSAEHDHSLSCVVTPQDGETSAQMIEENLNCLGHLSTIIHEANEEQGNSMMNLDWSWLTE
Chain of phosphorylated DDR1 (p-DDR1) (Q08345 19-913): as the sequence (Q08345 19-913) above
Chain of p38α (Q16539 whole entry): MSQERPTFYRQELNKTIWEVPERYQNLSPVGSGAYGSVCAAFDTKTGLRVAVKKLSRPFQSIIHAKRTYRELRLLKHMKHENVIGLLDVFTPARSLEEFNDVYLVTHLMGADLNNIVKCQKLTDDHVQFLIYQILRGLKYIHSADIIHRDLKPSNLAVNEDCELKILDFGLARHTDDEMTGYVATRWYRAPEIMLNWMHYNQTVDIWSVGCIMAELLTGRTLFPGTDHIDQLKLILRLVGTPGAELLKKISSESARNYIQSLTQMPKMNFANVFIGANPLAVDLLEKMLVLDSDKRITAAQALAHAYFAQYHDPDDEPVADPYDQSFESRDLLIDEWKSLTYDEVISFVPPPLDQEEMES

Q: How did the IC50 (DDR1 [1]) turn out when `Cc1ccc(C(=O)Nc2ccccn2)cc1C#Cc1cnc2cc(C3=CCCCC3)cnn12` [Compound C1, 3-{2-[7-(cyclohex-1-en-1-yl)imidazo[1,2-b]pyridazin-3-yl]ethynyl}-4-methyl-N-(pyridin-2-yl)benzamide] was run?
A: 23 nM

Q: And the “Inhibition of the phosphorylation of DDR1 at the cellular level (in words)” value [2]?
A: can inhibit the phosphorylation of DDR1 at the cellular level

Q: What about the “Ratio of p-DDR1 to GAPDH” value ([2]; compound C1 1.5 nM) of the same molecule?
A: 0.3282

Q: What about the inhibition at 0.0015 µM ([2]; compound C1 1.5 nM) of the same molecule?
A: 51.5%

Q: And the p-DDR1 signal ([2]; compound C1 1.5 nM)?
A: 490770

Q: What about the “Ratio of p-DDR1 to GAPDH” value ([2]; compound C1 4.6 nM) of the same molecule?
A: 0.2221

Q: What about the inhibition at 0.0046 µM ([2]; compound C1 4.6 nM) of the same molecule?
A: 67.7%

Q: And the p-DDR1 signal ([2]; compound C1 4.6 nM)?
A: 350490

Q: What about the “Ratio of p-DDR1 to GAPDH” value ([2]; compound C1 13.7 nM) of the same molecule?
A: 0.3020

Q: What about the inhibition at 0.0137 µM ([2]; compound C1 13.7 nM) of the same molecule?
A: 55.5%

Q: And the p-DDR1 signal ([2]; compound C1 13.7 nM)?
A: 417870

Q: And the “Ratio of p-DDR1 to GAPDH” value ([2]; compound C1 41.1 nM)?
A: 0.4145

Q: What about the inhibition at 0.0411 µM ([2]; compound C1 41.1 nM) of the same molecule?
A: 38.4%

Q: What about the p-DDR1 signal ([2]; compound C1 41.1 nM) of the same molecule?
A: 583470

Q: And the “Ratio of p-DDR1 to GAPDH” value ([2]; compound C1 123 nM)?
A: 0.2107

Q: What about the inhibition at 0.123 µM ([2]; compound C1 123 nM) of the same molecule?
A: 69.4%

Q: And the p-DDR1 signal ([2]; compound C1 123 nM)?
A: 313140

Q: What about the “Ratio of p-DDR1 to GAPDH” value ([2]; compound C1 370 nM) of the same molecule?
A: 0.1244

Q: And the inhibition at 0.37 µM ([2]; compound C1 370 nM)?
A: 82.5%

Q: What about the p-DDR1 signal ([2]; compound C1 370 nM) of the same molecule?
A: 164340

Q: And the “Ratio of p-DDR1 to GAPDH” value ([2]; compound C1 1111 nM)?
A: 0.0363

Q: And the inhibition at 1.111 µM ([2]; compound C1 1111 nM)?
A: 95.9%

Q: What about the p-DDR1 signal ([2]; compound C1 1111 nM) of the same molecule?
A: 51870

Q: And the “Ratio of p-DDR1 to GAPDH” value ([2]; compound C1 3333 nM)?
A: 0.0183

Q: And the inhibition at 3.333 µM ([2]; compound C1 3333 nM)?
A: 98.7%

Q: What about the p-DDR1 signal ([2]; compound C1 3333 nM) of the same molecule?
A: 27360

Q: What about the “Ratio of p-DDR1 to GAPDH” value ([2]; compound C1 10000 nM) of the same molecule?
A: 0.0094

Q: And the inhibition at 10 µM ([2]; compound C1 10000 nM)?
A: 100%

Q: And the p-DDR1 signal ([2]; compound C1 10000 nM)?
A: 14730

Q: And the inhibition at 1 µM (p38α; [4])?
A: 3.39%

Q: What about the inhibition at 1 µM (p38α; [5]) of the same molecule?
A: -3.27%

Q: And the inhibition at 1 µM (p38α; [6])?
A: 0.06%

Q: And the inhibition at 1 µM (IKKα; [4])?
A: -18%

Q: And the inhibition at 1 µM (IKKα; [5])?
A: -12.9%

Q: What about the inhibition at 1 µM (IKKα; [6]) of the same molecule?
A: -15.5%

Q: What about the inhibition at 1 µM (DDR1 [3]; read-out: % Inhibition (First measurement)) of the same molecule?
A: 99.4%

Q: What about the inhibition at 1 µM (DDR1 [3]; read-out: % Inhibition (Second measurement)) of the same molecule?
A: 99.1%

Q: What about the inhibition at 1 µM (DDR1 [3]; read-out: Average inhibition (%)) of the same molecule?
A: 99.3%

Q: And the “Selectivity of DDR1 inhibition in the kinase inhibition profile (in words)” value (DDR1 [3]; kinase panel)?
A: can inhibit DDR1 with higher selectivity

From US20240300958A1, “COMPOUNDS AND THE USES AND PHARMACEUTICAL COMPOSITIONS THEREOF” (BEIJING YOUZHUJU NETWORK TECHNOLOGY CO. LTD., priority 2023, published 2024)
